Results on one molecule are retold here after patent US10273233B2, “Inhibitors of influenza viruses replication” (Vertex Pharmaceuticals Incorporated, priority 2015, dated 2019).

For the test, the system named is influenza A. The test can be described thus: Influenza A mouse model, Compound (1) with or without oseltamivir. It is filed as in vivo, Mice. The method, then: Referring to FIG. 32, the potential for a positive therapeutic interaction between Compound (1) and oseltamivir against influenza A was explored in the mouse model. Mice were challenged with influenza A and dosed with vehicle (10 mL/kg 0.5% MC) or Compound (1) at 1, 3, 10, or 30 mg/kg BID alone, or in combination with 10 mg/kg BID oseltamivir. Therapy was started 48 hours post influenza A infection and continued for 10 days. All of the vehicle-treated controls succumbed to disease by study day 8 (Table 21).

Consider `CCOC(=O)C1=C[C@@H](OC(CC)CC)[C@H](NC(C)=O)[C@@H](N)C1` [Oseltamivir, oseltamivir, reference compound], for which the “Percent Survival” value (Oseltamivir 10 mg/kg BID alone, started +48 hours after infection, 10 days) was 0%. Further, under “administered alone: Compound (1) 1 mg/kg BID, oseltamivir 10 mg/kg”, the protection from mortality result was “failed to protect mice from influenza infection”.
